Measured values as given in PubChem BioAssay AID1918995 (Molecular Pharmacology Branch, DTP, NCI, 2023).

Tested on: 324938-238-R-J1-PDC complex spheroid growth, % test/control
Assay: Anticancer human tumor 324938-238-R-J1-PDC patient-derived bladder carcinoma cell line growth inhibition [AhR]
Conditions: for IC50: curve of first compound; for viability, T/C: stronger effect = lower value
In short: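 Complex tumor spheroids co-cultured with HUVEC and human MSC stroma; AhR antagonists tested in combination with standard-of-care and investigational agents. Top concentration at or near clinical Cmax (else 10 microM), half-log dilutions; growth expressed as percent test/control.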
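Also: spheroids exposed to agents for seven days before viability read.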

Cn1ncnc1C1c2n[nH]c(=O)c3cc(F)cc(c23)NC1c1ccc(F)cc1 (stereo not given) + CC(CO)NC(=O)c1cc(-c2ccc(Cl)cc2)nn(-c2cnn(C)c2)c1=O
IC50 (second compound 0.1 µM): > 100 nM | IC50 (second compound 0.316 µM): 91.9 nM | IC50 (second compound 1 µM): > 100 nM | IC50 (second compound 3.16 µM): 60.6 nM | IC50 (second compound 10 µM): 18.7 nM | viability, T/C (second compound 0.1 µM, first compound 0.000316 µM): 93.4% | viability, T/C (second compound 0.1 µM, first compound 0.001 µM): 107% | viability, T/C (second compound 0.1 µM, first compound 0.00316 µM): 87.1% | viability, T/C (second compound 0.1 µM, first compound 0.01 µM): 76.3% | viability, T/C (second compound 0.1 µM, first compound 0.0316 µM): 61.4% | viability, T/C (second compound 0.1 µM, first compound 0.1 µM): 58.5% | viability, T/C (second compound 0.316 µM, first compound 0.000316 µM): 83.5% | viability, T/C (second compound 0.316 µM, first compound 0.001 µM): 92.8% | viability, T/C (second compound 0.316 µM, first compound 0.00316 µM): 92.7% | viability, T/C (second compound 0.316 µM, first compound 0.01 µM): 81.7% | viability, T/C (second compound 0.316 µM, first compound 0.0316 µM): 62.9% | viability, T/C (second compound 0.316 µM, first compound 0.1 µM): 48.9% | viability, T/C (second compound 1 µM, first compound 0.000316 µM): 76.8% | viability, T/C (second compound 1 µM, first compound 0.001 µM): 82.2% | viability, T/C (second compound 1 µM, first compound 0.00316 µM): 79.2% | viability, T/C (second compound 1 µM, first compound 0.01 µM): 69.6% | viability, T/C (second compound 1 µM, first compound 0.0316 µM): 61% | viability, T/C (second compound 1 µM, first compound 0.1 µM): 53.5% | viability, T/C (second compound 3.16 µM, first compound 0.000316 µM): 67.6% | viability, T/C (second compound 3.16 µM, first compound 0.001 µM): 71.9% | viability, T/C (second compound 3.16 µM, first compound 0.00316 µM): 71% | viability, T/C (second compound 3.16 µM, first compound 0.01 µM): 61.5% | viability, T/C (second compound 3.16 µM, first compound 0.0316 µM): 52.1% | viability, T/C (second compound 3.16 µM, first compound 0.1 µM): 47.3% | viability, T/C (second compound 10 µM, first compound 0.000316 µM): 67.3% | viability, T/C (second compound 10 µM, first compound 0.001 µM): 65.8% | viability, T/C (second compound 10 µM, first compound 0.00316 µM): 60.7% | viability, T/C (second compound 10 µM, first compound 0.01 µM): 53% | viability, T/C (second compound 10 µM, first compound 0.0316 µM): 44.5% | viability, T/C (second compound 10 µM, first compound 0.1 µM): 43%

Nc1ncn(C2CC(O)C(CO)S2)c(=O)n1 (stereo not given) + CC(CO)NC(=O)c1cc(-c2ccc(Cl)cc2)nn(-c2cnn(C)c2)c1=O
IC50 (second compound 0.1 µM): 284 nM | IC50 (second compound 0.316 µM): 254 nM | IC50 (second compound 1 µM): > 300 nM | IC50 (second compound 3.16 µM): 139 nM | IC50 (second compound 10 µM): > 300 nM | viability, T/C (second compound 0.1 µM, first compound 0.000949 µM): 99.4% | viability, T/C (second compound 0.1 µM, first compound 0.003 µM): 93.2% | viability, T/C (second compound 0.1 µM, first compound 0.00949 µM): 90.7% | viability, T/C (second compound 0.1 µM, first compound 0.03 µM): 84% | viability, T/C (second compound 0.1 µM, first compound 0.0949 µM): 69.4% | viability, T/C (second compound 0.1 µM, first compound 0.3 µM): 49% | viability, T/C (second compound 0.316 µM, first compound 0.000949 µM): 93.9% | viability, T/C (second compound 0.316 µM, first compound 0.003 µM): 88.4% | viability, T/C (second compound 0.316 µM, first compound 0.00949 µM): 78.1% | viability, T/C (second compound 0.316 µM, first compound 0.03 µM): 78.7% | viability, T/C (second compound 0.316 µM, first compound 0.0949 µM): 64.2% | viability, T/C (second compound 0.316 µM, first compound 0.3 µM): 46.5% | viability, T/C (second compound 1 µM, first compound 0.000949 µM): 91.9% | viability, T/C (second compound 1 µM, first compound 0.003 µM): 89.6% | viability, T/C (second compound 1 µM, first compound 0.00949 µM): 90.5% | viability, T/C (second compound 1 µM, first compound 0.03 µM): 69.4% | viability, T/C (second compound 1 µM, first compound 0.0949 µM): 59.1% | viability, T/C (second compound 1 µM, first compound 0.3 µM): 54.2% | viability, T/C (second compound 3.16 µM, first compound 0.000949 µM): 75.1% | viability, T/C (second compound 3.16 µM, first compound 0.003 µM): 75.4% | viability, T/C (second compound 3.16 µM, first compound 0.00949 µM): 70.3% | viability, T/C (second compound 3.16 µM, first compound 0.03 µM): 58% | viability, T/C (second compound 3.16 µM, first compound 0.0949 µM): 57% | viability, T/C (second compound 3.16 µM, first compound 0.3 µM): 41.6% | viability, T/C (second compound 10 µM, first compound 0.000949 µM): 64.6% | viability, T/C (second compound 10 µM, first compound 0.003 µM): 72.6% | viability, T/C (second compound 10 µM, first compound 0.00949 µM): 57.1% | viability, T/C (second compound 10 µM, first compound 0.03 µM): 65.2% | viability, T/C (second compound 10 µM, first compound 0.0949 µM): 52.5% | viability, T/C (second compound 10 µM, first compound 0.3 µM): 53.3%
